# Test results: PubChem BioAssay AID1845204 (Molecular Pharmacology Branch, DTP, NCI, 2023)
# System: HSSY-II tumor spheroid viability
# Assay: Anticancer human tumor HSSY-II cell line growth inhibition;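 note: spheroids exposed to compounds for seven days before reading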;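 for viability, T/C: percent of DMSO vehicle control viability so 100% = untreated level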
# Conditions: spheroids with HUVEC and MSC; for IC50: curve of first compound; for viability, T/C: stronger effect = lower value
# Source text: Multicellular complex tumor spheroid response to DNA repair inhibitors in combination with DNA-damaging drugs
# This study explores the anticancer activities of DNA-damaging drugs and inhibitors of DNA damage repair, both as single agents and in combinations. Complex tumor spheroids comprised of malignant cells, endothelial cells and mesenchymal stem cells served as an in vitro model for human solid tumors. This model system incorporates physiologically relevant features and patient-derived or established malignant cell lines with clinically relevant genetic alterations from many tumor types. Twenty-six patient-derived or established malignant cell lines were evaluated representing sarcoma, melanoma, small cell lung cancer (SCLC), non-small cell lung cancer (NSCLC), as well as bladder, ovarian and pancreatic cancers. The concentration ranges selected for each drug and investigational agent were based upon clinically achievable concentrations if the clinical Cmax of the agent was known.
# Compounds. The drugs and compounds olaparib (NSC753686), talazoparib (NSC767125), berzosertib (NSC777718), elimusertib (NSC800525), nedisertib (NSC802822), VX-984 (NSC792969), AZD-1390 (NSC803789), temozolomide (NSC362856), topotecan (NSC609699), trabectedin (NSC813783), staurosporine (NSC755774), and gemcitabine (NSC613327) were obtained from the National Cancer Institute (NCI) Developmental Therapeutics Program Chemical Repository. The FDA-approved anticancer drug set is available from the Developmental Therapeutics Program at https://dtp.cancer.gov/organization/dscb/obtaining/available_plates.htm. […] The stock solutions were prepared in dimethyl sulfoxide (DMSO, Sigma-Aldrich, St. Louis, MO, cat. D2650) at 400-fold the tested concentration and stored at -70 degrees C. Prior to their use, the stock solutions were diluted in fresh medium and the final DMSO concentration in the assay was 0.25% (v/v). All drugs and investigational agents were tested over a range starting from a high concentration at or near the clinical Cmax and decreasing in half-log increments. If the clinical Cmax for an agent had not been determined, the highest concentration tested was 10 microM.
# Cell Lines. The patient-derived cancer cell (PDC) lines: 156681-154-R-J1-PDC, 283228-195-R-J1-PDC, 287954-098-R-J1-PDC, 292921-168-R-J2-PDC, 349418-098-R-PDC, 425362-245-T-J1-PDC, 556581-035-R-J1-PDC, and BL0293-F563-PDC were received from the NCI Patient-Derived Models Repository (PDMR, https://pdmr.cancer.gov). The established cell lines HS-SY-2 (RRID:CVCL_8719), MPNST, and SYO-1 (RRID:CVCL_7146) were obtained from the Sloan Kettering Institute. The alveolar soft parts sarcoma cell line ASPS-1 (RRID:CVCL_S738) was established at the NCI and grown from internal seed stocks. The following established cell lines were purchased from the American Type Culture Collection (ATCC, Manassas, VA): G-401 (ATCC, cat. CRL-1441, RRID:CVCL_0270), SW982 (ATCC, cat. HTB-93, RRID:CVCL_1734), VA-ES-BJ (ATCC, cat. CRL-2138, RRID:CVCL_1785), NCI-H719 (ATCC, cat. CRL-5837, RRID:CVCL_1582), NCI-H196 (ATCC, cat. CRL-5823, RRID:CVCL_1509), NCI-H841 (ATCC, cat. CRL-5845, RRID:CVCL_1595), NCI-H1618 (ATCC, cat. CRL-5879, RRID:CVCL_1480), NCI-H1876 (ATCC, cat. CRL-5902, RRID:CVCL_1503), DMS 114 (ATCC, cat. CRL-2066; RRID:CVCL_1174), NCI-H211 (ATCC, cat. CRL-5824; RRID:CVCL_1529), and SW 1271 (ATCC, cat. CRL-2177, RRID:CVCL_1716). The small cell lung cancer cell line COR-L88 was purchased from Sigma-Aldrich (cat. 92031917-1VL, RRID:CVCL_1141). The non-small cell lung cancer cell lines NCI-H226 (RRID:CVCL_1544) and NCI-H322M (RRID:CVCL_1557) were established at the NCI and grown from internal seed stocks. Pooled donor human umbilical vein endothelial cells (HUVEC, Lonza, cat. CC-2519) and human mesenchymal stem cells (hMSC, Lonza, cat. PT-2501) were purchased from Lonza (Walkersville, MD).
# Cell Culture. All cells were maintained in an incubator at 37 degrees C and 5% CO2 with 95% humidity. […]
# [1] = second compound 0.003 µM, first compound 0.00949 µM
# [2] = second compound 0.003 µM, first compound 0.03 µM
# [3] = second compound 0.003 µM, first compound 0.0949 µM
# [4] = second compound 0.003 µM, first compound 0.3 µM
# [5] = second compound 0.003 µM, first compound 0.949 µM
# [6] = second compound 0.003 µM, first compound 3 µM
# [7] = second compound 0.00949 µM, first compound 0.00949 µM
# [8] = second compound 0.00949 µM, first compound 0.03 µM
# [9] = second compound 0.00949 µM, first compound 0.0949 µM
# [10] = second compound 0.00949 µM, first compound 0.3 µM
# [11] = second compound 0.00949 µM, first compound 0.949 µM
# [12] = second compound 0.00949 µM, first compound 3 µM
# [13] = second compound 0.03 µM, first compound 0.00949 µM
# [14] = second compound 0.03 µM, first compound 0.03 µM
# [15] = second compound 0.03 µM, first compound 0.0949 µM
# [16] = second compound 0.03 µM, first compound 0.3 µM
# [17] = second compound 0.03 µM, first compound 0.949 µM
# [18] = second compound 0.03 µM, first compound 3 µM
# [19] = second compound 0.0949 µM, first compound 0.00949 µM
# [20] = second compound 0.0949 µM, first compound 0.03 µM
# [21] = second compound 0.0949 µM, first compound 0.0949 µM
# [22] = second compound 0.0949 µM, first compound 0.3 µM
# [23] = second compound 0.0949 µM, first compound 0.949 µM
# [24] = second compound 0.0949 µM, first compound 3 µM
# [25] = second compound 0.3 µM, first compound 0.00949 µM
# [26] = second compound 0.3 µM, first compound 0.03 µM
# [27] = second compound 0.3 µM, first compound 0.0949 µM
# [28] = second compound 0.3 µM, first compound 0.3 µM
# [29] = second compound 0.3 µM, first compound 0.949 µM
# [30] = second compound 0.3 µM, first compound 3 µM
Structure (SMILES),IC50 (second compound 0.003 µM),IC50 (second compound 0.00949 µM),IC50 (second compound 0.03 µM),IC50 (second compound 0.0949 µM),IC50 (second compound 0.3 µM),"viability, T/C [3]","viability, T/C [4]","viability, T/C [5]","viability, T/C [6]","viability, T/C [9]","viability, T/C [10]","viability, T/C [11]","viability, T/C [12]","viability, T/C [15]","viability, T/C [16]","viability, T/C [17]","viability, T/C [18]","viability, T/C [21]","viability, T/C [22]","viability, T/C [23]",also measured
CNCc1ccc(-c2cc(-c3nc(-c4ccc(S(=O)(=O)C(C)C)cc4)cnc3N)on2)cc1 + CC[C@@]1(O)C(=O)OCc2c1cc1n(c2=O)Cc2cc3c(CN(C)C)c(O)ccc3nc2-1,18.6 nM,< 9.49 nM,< 9.49 nM,< 9.49 nM,< 9.49 nM,3.68%,4.09%,2.62%,0.44%,3.26%,4.02%,2.08%,0.35%,3.3%,3.14%,2.37%,0.13%,4.07%,3.55%,2.72%,"viability, T/C [1]: 77.6%; viability, T/C [2]: 30.6%; viability, T/C [7]: 32.7%; viability, T/C [8]: 9.13%; viability, T/C [13]: 6.55%; viability, T/C [14]: 4.21%; viability, T/C [19]: 4.97%; viability, T/C [20]: 3.98%; viability, T/C [24]: 0.42%; viability, T/C [25]: 4.42%; viability, T/C [26]: 3.95%; viability, T/C [27]: 3.59%; viability, T/C [28]: 3.99%; viability, T/C [29]: 3.16%; viability, T/C [30]: 0.24%"
Cn1ncnc1[C@H]1c2n[nH]c(=O)c3cc(F)cc(c23)N[C@@H]1c1ccc(F)cc1 + CC[C@@]1(O)C(=O)OCc2c1cc1n(c2=O)Cc2cc3c(CN(C)C)c(O)ccc3nc2-1,< 9.49 nM,< 9.49 nM,< 9.49 nM,< 9.49 nM,< 9.49 nM,9.97%,6.78%,5.19%,4.32%,5.6%,5.88%,5.84%,3.69%,5.25%,5.52%,4.93%,3.48%,3.48%,3.91%,3.43%,"viability, T/C [1]: 29.2%; viability, T/C [2]: 16.7%; viability, T/C [7]: 7.72%; viability, T/C [8]: 5.97%; viability, T/C [13]: 5.64%; viability, T/C [14]: 5.6%; viability, T/C [19]: 4.26%; viability, T/C [20]: 4.04%; viability, T/C [24]: 2.72%; viability, T/C [25]: 3.45%; viability, T/C [26]: 4.01%; viability, T/C [27]: 3.37%; viability, T/C [28]: 3.5%; viability, T/C [29]: 2.94%; viability, T/C [30]: 2.13%"
O=C(c1cc(Cc2n[nH]c(=O)c3ccccc23)ccc1F)N1CCN(C(=O)C2CC2)CC1 + CC[C@@]1(O)C(=O)OCc2c1cc1n(c2=O)Cc2cc3c(CN(C)C)c(O)ccc3nc2-1,505 nM,< 94.9 nM,< 94.9 nM,< 94.9 nM,< 94.9 nM,63.4%,56.4%,41.4%,18.8%,14.3%,11.9%,10.8%,7.16%,5.6%,5.95%,5.27%,6.36%,5.02%,4.58%,4.8%,"viability, T/C (second compound 0.003 µM, first compound 9.49 µM): 7.55%; viability, T/C (second compound 0.003 µM, first compound 30 µM): 7.59%; viability, T/C (second compound 0.00949 µM, first compound 9.49 µM): 6.35%; viability, T/C (second compound 0.00949 µM, first compound 30 µM): 7%; viability, T/C (second compound 0.03 µM, first compound 9.49 µM): 5.82%; viability, T/C (second compound 0.03 µM, first compound 30 µM): 6.47%; viability, T/C [24]: 4.07%; viability, T/C (second compound 0.0949 µM, first compound 9.49 µM): 4.67%; viability, T/C (second compound 0.0949 µM, first compound 30 µM): 5.85%; viability, T/C [27]: 3.79%; viability, T/C [28]: 4.17%; viability, T/C [29]: 3.66%; viability, T/C [30]: 4.24%; viability, T/C (second compound 0.3 µM, first compound 9.49 µM): 3.48%; viability, T/C (second compound 0.3 µM, first compound 30 µM): 4.55%"
